Data reported in patent publication US7179812B2, “Diazine derivatives” (Hoffmann-la Roche Inc., priority 2005, dated 2007).

Biological target: T1, HER2 (Homo sapiens, UniProt P04626)
T1 construct: endogenous in cells; host or cells: Calu3 tumor cell line
Experiment: Inhibition of HER2 phosphorylation in Calu3 tumor cell line
Format: cell-based
Conditions: Calu-3; compound concentration 1 μM; Calu3 cells, 16 h incubation; pY 1248 in HER2; percentage of the DMSO treated control; read-out: Percent inhibition of HER2-phosphorylation
Method: Inhibition of HER2 Phosphorylation in Calu3 Tumor Cell Line
2×10^5 Calu3 cells per well were plated in a 12-well plate. After 4 days cells were starved for 16 h in DMEM(Dulbecco's Modified Eagle Medium)/0.5% FCS(Fetal Calf Serum)/1% Glutamine. During this time cells were incubated with 1 μM of the compound. Afterwards cells were lysed in lyses buffer containing 1% Triton, 10% Glycerol, 1 mM EGTA, 1.5 mM MgCl2, 150 mM NaCl, 50 mM Hepes pH 7.5, 1 mM PMSF, 10 μg/mL Aprotinin and […] Orthovanadate. Cell lysates were analyzed on a SDS PAGE and after transfer to a nitrocellulose membrane detected with an antibody specifically recognizing the pY 1248 in HER2. Inhibition of HER2 phosphorylation is calculated as percentage of the DMSO treated control. This percentage is calculated according to the following formula: Inhibition in %=100−(Phosphorylated-HER2-Signal of Test Sample*100/Phosphorylated-HER2-Signal DMSO-control).

T1 sequence (P04626 23-1255): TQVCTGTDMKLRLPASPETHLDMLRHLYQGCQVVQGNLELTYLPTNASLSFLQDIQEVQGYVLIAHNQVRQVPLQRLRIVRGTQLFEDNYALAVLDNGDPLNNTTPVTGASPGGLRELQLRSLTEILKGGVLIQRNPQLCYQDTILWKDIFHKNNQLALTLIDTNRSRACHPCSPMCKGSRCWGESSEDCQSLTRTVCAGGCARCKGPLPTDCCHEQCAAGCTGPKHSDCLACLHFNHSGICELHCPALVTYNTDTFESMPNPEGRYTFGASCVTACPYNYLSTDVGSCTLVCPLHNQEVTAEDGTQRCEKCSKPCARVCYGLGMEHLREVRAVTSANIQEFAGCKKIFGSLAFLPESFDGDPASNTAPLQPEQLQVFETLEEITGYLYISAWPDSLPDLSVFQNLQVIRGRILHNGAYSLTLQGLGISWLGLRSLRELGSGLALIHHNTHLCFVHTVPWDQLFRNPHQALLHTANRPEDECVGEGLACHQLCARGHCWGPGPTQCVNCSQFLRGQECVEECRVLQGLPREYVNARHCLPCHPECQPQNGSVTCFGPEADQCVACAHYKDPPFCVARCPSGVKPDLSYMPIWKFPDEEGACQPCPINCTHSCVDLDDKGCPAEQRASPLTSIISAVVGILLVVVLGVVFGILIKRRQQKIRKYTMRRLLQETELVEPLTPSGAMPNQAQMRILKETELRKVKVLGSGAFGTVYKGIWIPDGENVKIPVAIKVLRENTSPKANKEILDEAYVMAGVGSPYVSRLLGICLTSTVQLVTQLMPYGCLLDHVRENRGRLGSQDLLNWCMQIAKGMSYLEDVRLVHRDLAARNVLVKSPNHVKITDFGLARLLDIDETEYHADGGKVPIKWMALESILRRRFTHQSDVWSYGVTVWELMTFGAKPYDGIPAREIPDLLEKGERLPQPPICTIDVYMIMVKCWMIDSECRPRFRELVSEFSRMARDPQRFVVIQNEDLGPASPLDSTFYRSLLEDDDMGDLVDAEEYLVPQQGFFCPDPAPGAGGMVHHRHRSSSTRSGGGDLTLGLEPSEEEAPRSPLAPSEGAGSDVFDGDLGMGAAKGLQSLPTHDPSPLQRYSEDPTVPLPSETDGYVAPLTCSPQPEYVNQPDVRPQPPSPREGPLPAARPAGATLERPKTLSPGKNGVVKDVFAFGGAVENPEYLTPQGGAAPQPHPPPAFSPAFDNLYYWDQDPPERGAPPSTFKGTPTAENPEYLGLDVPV

inhibition at 1 µM | SMILES
72.7% | FC(F)(F)c1ccc(C=Cc2nc(COc3ncc(CCCCn4ccnn4)cn3)co2)cc1 [example 4, 5-(4-[1,2,3]Triazol-1-yl-butyl)-2-{2-[2-(4-trifluoromethyl-phenyl)-vinyl]-oxazol-4-ylmethoxy}-pyrimidine]
75.3% | FC(F)(F)c1ccc(C=Cc2nc(COc3cnc(CCCCn4ccnn4)cn3)co2)cc1 [example 7, 2-(4-[1,2,3]Triazol-1-yl-butyl)-5-{2-[2-(4-trifluoromethyl-phenyl)-vinyl]-oxazol-4-ylmethoxy}-pyrazine]
79.8% | FC(F)(F)c1ccc(C=Cc2nc(COc3ccc(CCCCn4ccnn4)nn3)co2)cc1 [example 2, 3-(4-[1,2,3]Triazol-1-yl-butyl)-6-{2-[2-(4-trifluoromethyl-phenyl)-vinyl]-oxazol-4-ylmethoxy}-pyridazine]
